Test results reported in US12653809B2, “Urea, amide, and substituted heteroaryl compounds for CBL-B inhibition” (Nurix Therapeutics, Inc., priority 2019, dated 2026).
Like-named read-outs stand apart in the source and are kept apart here.

Molecular target: T1, Cbl-b (truncated variant, UniProt number Q13191) (Homo sapiens, UniProt Q13191)
T1 construct: made in house
Assay: Cbl-b activity assay (TR-FRET, interaction of Cbl-b with UbcH5B-Ub)
Type: biochemical
Excerpt: As described in Biological Example 1A, a Cbl-b activity assay (Cbl-b inhibition assay) used to measure the IC50 values for Cbl-b inhibition uses a mixture comprising candidate compound, Cbl-b (truncated, with an Avitag, and biotinylated), a fluorescently-labeled E2 enzyme UbcH5B labelled with ubiquitin conjugated to BODIPY-fluorescein (UbcH5B-Ub), streptavidin-terbium, and assay buffer. In one embodiment, the Cbl-b activity assay (Cbl-b inhibition assay) used to measure IC50 for inhibition of Cbl-b uses the conditions described in Biological Example 1A with 12 nM Cbl-b. […] In another embodiment, the Cbl-b activity assay (Cbl-b inhibition assay) used to measure IC50 for inhibition of Cbl-b uses the conditions described in Biological Example 1B, with candidate compound, 0.125 nM Cbl-b (truncated, with an avitag, and biotinylated), fluorescently labelled inhibitor probe, and assay buffer. Displacement of the inhibitor probe indicates Cbl-b activity.
Candidate compounds isolated from screening assays were evaluated for their ability to bind and inhibit Cbl-b, an E3 ubiquitin-protein ligase.
The ability of candidate compounds to inhibit Cbl-b activity was measured by monitoring the interaction of Cbl-b with UbcH5B-Ub in the presence of the candidate compound. A truncated variant of Cbl-b (UniProt number Q13191; SEQ ID NO:1) containing an Avitag at its N-terminus was co-expressed with BirA biotin ligase and purified using a standard protocol (see Dou et al., Nature Structural and Molecular Biology 8: 982-987, 2013; Avidity LLC).
Fluorescently labeled UbcH5B-Ub was prepared by conjugating ubiquitin (Ub), labeled at its N-terminus with Bodipy-Fluorescein, to UbcH5B, an E2 enzyme, harboring a cysteine to lysine mutation at position 85. This mutation is similar to a mutation that was previously reported (see Dou et al., Nature Structural and Molecular Biology 8: 982-987, 2013). Cbl-b activity assays were performed in a 384-well plate at room temperature in a 10 μL reaction volume by pre-incubating 12 nM Cbl-b (final concentration) in an assay buffer containing 50 mM HEPES pH 7.0, 100 mM NaCl, 0.01% Triton X-100, 0.01% BSA, and 1 mM DTT in the presence of a candidate compound in 1% DMSO (final concentration, High Conditions) for one hour. After incubation in the presence of the candidate compound, the plate was incubated for an additional 1.5 hours in the presence of 60 nM Src kinase with 1 mM ATP and 5 mM MgCl2 (final concentrations). Alternatively, compounds were tested as described above with assay buffer containing 50 mM NaCl instead of 100 mM NaCl and 30 nM Src kinase instead of 60 nM Src kinase (Low Conditions). Src kinase was prepared as previously described (see Kobashigawa et al., Proc Natl Acad Sci USA, 108: 20579-20584, 2011). […] The plate was incubated for one hour. Following the one hour incubation, the plates were read for TR-FRET signal at 520/620 nm using Envision plate reader (Perkin Elmer). The presence of a FRET signal that indicated Cbl-b was not inhibited by the compound candidate. The absence of a FRET signal indicated Cbl-b was inhibited by the compound candidate and was therefore a Cbl-b inhibitor.
The resulting data for the Cbl-b activity assays were analyzed using standard methods to report the IC50 values of the tested compounds (Tables 3-4). The resulting data for the Cbl-b binding assay was solvent corrected and double-referenced prior to analysis. All data were globally fit to a steady-state affinity and kinetic binding model where applicable. Compounds were ranked into bins A through D as follows for IC50: A indicates <0.1 μM, B indicates 0.1 μM≤IC50<1 μM, C indicates 1 μM≤IC50<5 μM, and D indicates 5 μM≤IC50.

[1] = high conditions: 100 mM NaCl, 60 nM Src kinase, 12 nM Cbl-b, read-out: Cbl-b activity IC50
[2] = Biological Example 1A, low or high conditions not stated, read-out: IC50 values in the Cbl-b inhibition assay of Biological Example 1A
[3] = low conditions: 50 mM NaCl, 30 nM Src kinase, 12 nM Cbl-b, read-out: Cbl-b activity IC50

T1 sequence (Q13191 36-427): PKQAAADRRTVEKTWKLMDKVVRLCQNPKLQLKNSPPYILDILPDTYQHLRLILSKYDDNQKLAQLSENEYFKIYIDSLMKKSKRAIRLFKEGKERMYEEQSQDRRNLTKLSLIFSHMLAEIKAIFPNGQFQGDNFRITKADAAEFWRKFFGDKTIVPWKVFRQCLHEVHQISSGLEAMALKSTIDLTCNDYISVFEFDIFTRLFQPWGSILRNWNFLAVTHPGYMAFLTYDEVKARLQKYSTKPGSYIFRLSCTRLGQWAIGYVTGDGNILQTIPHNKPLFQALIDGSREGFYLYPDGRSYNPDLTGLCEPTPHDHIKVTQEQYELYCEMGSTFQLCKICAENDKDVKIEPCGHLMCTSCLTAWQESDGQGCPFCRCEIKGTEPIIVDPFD

Row | SMILES | IC50 [1] | IC50 [2] | IC50 [3]
1 | Cn1cnnc1[C@@H]1C[C@@H]1c1cccc(NC(=O)N2CCOc3cccnc32)c1 [Example 25, N-(3-((1S,2R)-2-(4-methyl-4H-1,2,4-triazol-3-yl)cyclopropyl)phenyl)-2,3-dihydro-4H-pyrido[3,2-b][1,4]oxazine-4-carboxamide] | 100 to 1000 nM |  | 
2 | Cn1cnnc1CC1(c2cccc(NC(=O)N3CC4(CCNC4)Oc4cccnc43)c2)COC1 (stereo not shown) [Example 26, N-(3-(3-((4-methyl-4H-1,2,4-triazol-3-yl)methyl)oxetan-3-yl)phenyl)spiro[pyrido[3,2-b][1,4]oxazine-2,3′-pyrrolidine]-4(3H)-carboxamide] | < 100 nM |  | 
3 | Cn1cnnc1CC1(c2cccc(NC(=O)N3CC4(CNC4)Oc4cccnc43)c2)COC1 [Example 27, N-(3-(3-((4-methyl-4H-1,2,4-triazol-3-yl)methyl)oxetan-3-yl)phenyl)spiro[azetidine-3,2′-pyrido[3,2-b][1,4]oxazine]-4′(3′H)-carboxamide] | < 100 nM |  | 
4 | Cn1cnnc1C(F)(F)[C@](C)(F)c1cccc(NC(=O)N2CC3(CNC3)Oc3cccnc32)c1 [Example 28, (R)—N-(3-(1,1,2-trifluoro-1-(4-methyl-4H-1,2,4-triazol-3-yl)propan-2-yl)phenyl)spiro[azetidine-3,2′-pyrido[3,2-b][1,4]oxazine]-4′(3′H)-carboxamide] | < 100 nM |  | 
5 | CN1CC2(C1)CN(C(=O)Nc1cccc(C3(Cc4nncn4C)COC3)c1)c1ncccc1O2 [Example 29, 1-methyl-N-(3-(3-((4-methyl-4H-1,2,4-triazol-3-yl)methyl)oxetan-3-yl)phenyl)spiro[azetidine-3,2′-pyrido[3,2-b][1,4]oxazine]-4′(3′H)-carboxamide] | < 100 nM |  | 
6 | Cn1cnnc1CC1(c2cccc(NC(=O)N3CC4(CCNCC4)c4cccnc43)c2)COC1 [Example 30, N-(3-(3-((4-methyl-4H-1,2,4-triazol-3-yl)methyl)oxetan-3-yl)phenyl)spiro[piperidine-4,3′-pyrrolo[2,3-b]pyridine]-1′(2′H)-carboxamide] | < 100 nM |  | 
7 | CN1CCC2(CC1)CN(C(=O)Nc1cccc(C3(Cc4nncn4C)COC3)c1)c1ncccc12 [Example 31, 1-methyl-N-(3-(3-((4-methyl-4H-1,2,4-triazol-3-yl)methyl)oxetan-3-yl)phenyl)spiro[piperidine-4,3′-pyrrolo[2,3-b]pyridine]-1′(2′H)-carboxamide] | 100 to 1000 nM | 100 to 1000 nM | 
8 | Cn1cnnc1CC1(c2cccc(N3CC4C(C(F)(F)F)CCN4C3=O)c2)COC1 (stereo not shown) [Example 32, 2-(3-(3-((4-methyl-4H-1,2,4-triazol-3-yl)methyl)oxetan-3-yl)phenyl)-7-(trifluoromethyl)hexahydro-3H-pyrrolo[1,2-c]imidazol-3-one] | 1000 to 5000 nM | 1000 to 5000 nM | 
9 | CC(Sc1nncn1C)c1cccc(C(=O)Nc2ccccn2)c1 (stereo not shown) [Example 34, 3-(1-((4-methyl-4H-1,2,4-triazol-3-yl)thio)ethyl)-N-(pyridin-2-yl)benzamide] |  |  | ≥ 5000 nM
10 | C[C@H](Sc1nncn1C)c1cccc(C(=O)Nc2ccc3ccccc3n2)c1 [Example 35, (S)-3-(1-((4-methyl-4H-1,2,4-triazol-3-yl)thio)ethyl)-N-(quinolin-2-yl)benzamide] | ≥ 5000 nM |  | 
11 | C[C@H](Sc1nncn1C)c1cccc(C(=O)Nc2cc(C(F)(F)F)ccn2)c1 [Example 36, (S)-3-(1-((4-methyl-4H-1,2,4-triazol-3-yl)thio)ethyl)-N-(4-(trifluoromethyl)pyridin-2-yl)benzamide] | 1000 to 5000 nM | 1000 to 5000 nM | 
12 | Cn1cnnc1CC1(c2cccc(C(=O)Nc3cccc(C4CC4)n3)c2)COC1 [Example 37, N-(6-cyclopropylpyridin-2-yl)-3-(3-((4-methyl-4H-1,2,4-triazol-3-yl)methyl)oxetan-3-yl)benzamide] | ≥ 5000 nM | ≥ 5000 nM | 
13 | Cc1cccc(NC(=O)c2cccc(C3(Cc4nncn4C)COC3)c2)n1 [Example 38, 3-(3-((4-methyl-4H-1,2,4-triazol-3-yl)methyl)oxetan-3-yl)-N-(6-methylpyridin-2-yl)benzamide] | ≥ 5000 nM | ≥ 5000 nM | 

Continued, values first:

Row | IC50 [1] | IC50 [2] | IC50 [3] | SMILES
14 |  |  | ≥ 5000 nM | CC(Sc1nncn1C)c1cccc(C(=O)Nc2ccccc2)c1 (stereo not shown) [Example 33, 3-(1-((4-methyl-4H-1,2,4-triazol-3-yl)thio)ethyl)-N-phenylbenzamide]
15 | 1000 to 5000 nM | 1000 to 5000 nM |  | Cc1cnnc(NC(=O)Nc2cccc([C@H](C)Sc3nncn3C)c2)c1 [Example 39, (S)-1-(3-(1-((4-methyl-4H-1,2,4-triazol-3-yl)thio)ethyl)phenyl)-3-(5-methylpyridazin-3-yl)urea]
16 | 1000 to 5000 nM | 1000 to 5000 nM |  | C[C@H](Sc1nncn1C)c1cccc(NC(=O)N2CC3CCCC3C2)c1 (stereo partly drawn) [Example 40, N-(3-((S)-1-((4-methyl-4H-1,2,4-triazol-3-yl)thio)ethyl)phenyl)hexahydrocyclopenta[c]pyrrole-2(1H)-carboxamide]
17 | ≥ 5000 nM |  |  | CC1CCN(C(=O)Nc2cccc([C@H](C)Sc3nncn3C)c2)C1 (stereo partly drawn) [Example 41, 3-methyl-N-(3-((S)-1-((4-methyl-4H-1,2,4-triazol-3-yl)thio)ethyl)phenyl)pyrrolidine-1-carboxamide]
18 | ≥ 5000 nM |  |  | CC1CN(C(=O)Nc2cccc([C@H](C)Sc3nncn3C)c2)CC(C)O1 (stereo partly drawn) [Example 42, 2,6-dimethyl-N-(3-((S)-1-((4-methyl-4H-1,2,4-triazol-3-yl)thio)ethyl)phenyl)morpholine-4-carboxamide]
19 | ≥ 5000 nM |  |  | C[C@H](Sc1nncn1C)c1cccc(NC(=O)N2CCOC3(CCC3)C2)c1 [Example 43, (S)—N-(3-(1-((4-methyl-4H-1,2,4-triazol-3-yl)thio)ethyl)phenyl)-5-oxa-8-azaspiro[3.5]nonane-8-carboxamide]
20 | ≥ 5000 nM |  |  | C[C@H](Sc1nncn1C)c1cccc(NC(=O)N2CCn3nccc3C2)c1 [Example 44, (S)—N-(3-(1-((4-methyl-4H-1,2,4-triazol-3-yl)thio)ethyl)phenyl)-6,7-dihydropyrazolo[1,5-a]pyrazine-5(4H)-carboxamide]
21 | 100 to 1000 nM | 100 to 1000 nM |  | C[C@H](Sc1nncn1C)c1cccc(NC(=O)N2Cc3cccc(O)c3C2)c1 [Example 45, (S)-4-hydroxy-N-(3-(1-((4-methyl-4H-1,2,4-triazol-3-yl)thio)ethyl)phenyl)isoindoline-2-carboxamide]
22 | 1000 to 5000 nM | 1000 to 5000 nM |  | C[C@H](Sc1nncn1C)c1cccc(NC(=O)N2Cc3cnn(C)c3C2)c1 [Example 46, (S)-1-methyl-N-(3-(1-((4-methyl-4H-1,2,4-triazol-3-yl)thio)ethyl)phenyl)-4,6-dihydropyrrolo[3,4-c]pyrazole-5(1H)-carboxamide]
23 | ≥ 5000 nM |  |  | C[C@H](Sc1nncn1C)c1cccc(NC(=O)N2CCC(C(F)F)C2)c1 (stereo partly drawn) [Example 47, 3-(difluoromethyl)-N-(3-((S)-1-((4-methyl-4H-1,2,4-triazol-3-yl)thio)ethyl)phenyl)pyrrolidine-1-carboxamide]
24 | ≥ 5000 nM |  |  | C[C@H](Sc1nncn1C)c1cccc(NC(=O)N2CCOC3(CC3)C2)c1 [Example 48, (S)—N-(3-(1-((4-methyl-4H-1,2,4-triazol-3-yl)thio)ethyl)phenyl)-4-oxa-7-azaspiro[2.5]octane-7-carboxamide]
25 | ≥ 5000 nM |  |  | C[C@H](Sc1nncn1C)c1cccc(NC(=O)N(C)C2CCC2)c1 [Example 49, (S)-1-cyclobutyl-1-methyl-3-(3-(1-((4-methyl-4H-1,2,4-triazol-3-yl)thio)ethyl)phenyl)urea]
